Results as given in patent publication US20240360177A1, “PEPTIDES WITH ANTIMICROBIAL ACTIVITIES” (priority 2021, published 2024).
In brackets after ≈: the same amount, converted by molar mass. Starred links: 1 amine or outer side, 2 acyl side, 3 side chain; linkers in the order of their positions; H or OH if unused. Non-standard residues stand in square brackets, D forms with d. Residues, ends and D or L forms follow the SMILES beside them. *: point of attachment. Cyclohexanecarbonyl = O=C(C1CCCCC1)*; Morpholinoacetyl = O=C(CN1CCOCC1)*; 4Pal = N[C@@H](Cc1ccncc1)C(=O)O; NH(4-F-phenyl) = Fc1ccc(N*)cc1; CO = O=C([*:1])[*:2]; Inp = O=C(O)C1CCNCC1; AEA = NCCOCC(=O)O; Ms = CS(=O)(=O)*

Assays:
Conditions in all cases: 24 h
C. tropicalis = tested on: C. tropicalis
C. albicans = tested on: C. albicans
C. dubliniensis = tested on: C. dubliniensis
C. parapsilosis = tested on: C. parapsilosis
C. glabrata = tested on: C. glabrata
C. krusei = tested on: C. krusei
C. auris = tested on: C. auris

| Structure (SMILES) | MIC C. tropicalis (C. tropicalis) | MIC C. albicans (C. albicans) | MIC C. dubliniensis (C. dubliniensis) | MIC C. parapsilosis (C. parapsilosis) | MIC C. glabrata (C. glabrata) | MIC C. krusei (C. krusei) | MIC C. auris (C. auris) |
| --- | --- | --- | --- | --- | --- | --- | --- |
| N=C(N)NCCC[C@@H](N)C(=O)N[C@@H](CCCNC(=N)N)C(=O)N[C@H](CCCNC(=N)N)C(=O)NCCOCC(=O)N[C@H](CCCNC(=N)N)C(=O)N[C@@H](CCCNC(=N)N)C(=O)N[C@H](CCCNC(=N)N)C(=O)NCCOCC(=O)N[C@H](CCCNC(=N)N)C(=O)N[C@@H](CCCNC(=N)N)C(=O)N[C@H](CCCNC(=N)N)C(=O)N[C@@H](CCCNC(=N)N)C(=O)NCCOCC(=O)N[C@H](CCCNC(=N)N)C(=O)N[C@@H](CCCNC(=N)N)C(=O)N[C@H](CCCNC(=N)N)C(=O)N[C@@H](CCCNC(=N)N)C(N)=O [SEQ ID NO: 52, rRr-(Aea)-rRr-(Aea)-rRrR-(Aea)-rRrR-NH2] (H-[dR]R[dR][AEA][dR]R[dR][AEA][dR]R[dR]R[AEA][dR]R[dR]R-NH2) | 0.5 µg/mL (≈ 0.199 µM) | 0.5 µg/mL (≈ 0.199 µM) | 0.5 µg/mL (≈ 0.199 µM) | 0.25 µg/mL (≈ 0.0997 µM) | 0.5 µg/mL (≈ 0.199 µM) | 0.5 µg/mL (≈ 0.199 µM) | 1 µg/mL (≈ 0.399 µM) |
| N=C(N)NCCC[C@@H](N)C(=O)N[C@@H](CCCNC(=N)N)C(=O)N[C@H](CCCNC(=N)N)C(=O)N1CCC[C@H]1C(=O)N[C@H](CCCNC(=N)N)C(=O)N[C@@H](CCCNC(=N)N)C(=O)N[C@H](CCCNC(=N)N)C(=O)N1CCC[C@H]1C(=O)N[C@H](CCCNC(=N)N)C(=O)N[C@@H](CCCNC(=N)N)C(=O)N[C@H](CCCNC(=N)N)C(=O)N[C@@H](CCCNC(=N)N)C(=O)N1CCC[C@H]1C(=O)N[C@H](CCCNC(=N)N)C(=O)N[C@@H](CCCNC(=N)N)C(=O)N[C@H](CCCNC(=N)N)C(=O)N[C@@H](CCCNC(=N)N)C(=O)O [SEQ ID NO: 54, rRr-P-rRr-P-rRrR-P-rRrR] (H-[dR]R[dR]P[dR]R[dR]P[dR]R[dR]RP[dR]R[dR]R-OH) | 0.25 µg/mL (≈ 0.1 µM) | 0.25 µg/mL (≈ 0.1 µM) | 0.5 µg/mL (≈ 0.2 µM) | 0.25 µg/mL (≈ 0.1 µM) | 0.5 µg/mL (≈ 0.2 µM) | 0.5 µg/mL (≈ 0.2 µM) | 2 µg/mL (≈ 0.801 µM) |
| CS(=O)(=O)N[C@H](CCCNC(=N)N)C(=O)N[C@@H](CCCNC(=N)N)C(=O)N[C@H](CCCNC(=N)N)C(=O)N1CCC[C@H]1C(=O)N[C@H](CCCNC(=N)N)C(=O)N[C@@H](CCCNC(=N)N)C(=O)N[C@H](CCCNC(=N)N)C(=O)N1CCC[C@H]1C(=O)N[C@H](CCCNC(=N)N)C(=O)N[C@@H](CCCNC(=N)N)C(=O)N[C@H](CCCNC(=N)N)C(=O)N[C@@H](CCCNC(=N)N)C(=O)N1CCC[C@H]1C(=O)N[C@H](CCCNC(=N)N)C(=O)N[C@@H](CCCNC(=N)N)C(=O)N[C@H](CCCNC(=N)N)C(=O)N[C@@H](CCCNC(=N)N)C(N)=O [SEQ ID NO: 56, CH3SO2NH-rRr-P-rRr-P-rRrR-P-rRrR-NH2] (Ms-[dR]R[dR]P[dR]R[dR]P[dR]R[dR]RP[dR]R[dR]R-NH2) | 0.5 µg/mL (≈ 0.194 µM) | 0.5 µg/mL (≈ 0.194 µM) | 0.5 µg/mL (≈ 0.194 µM) | 0.25 µg/mL (≈ 0.0972 µM) | 0.5 µg/mL (≈ 0.194 µM) | 1 µg/mL (≈ 0.389 µM) | 0.5 µg/mL (≈ 0.194 µM) |
| N=C(N)NCCC[C@H](NC(=O)[C@@H](CCCNC(=N)N)NC(=O)[C@H](CCCNC(=N)N)NC(=O)[C@@H](CCCNC(=N)N)NC(=O)[C@@H]1CCCN1C(=O)[C@H](CCCNC(=N)N)NC(=O)[C@@H](CCCNC(=N)N)NC(=O)[C@H](CCCNC(=N)N)NC(=O)[C@@H](CCCNC(=N)N)NC(=O)[C@@H]1CCCN1C(=O)[C@@H](CCCNC(=N)N)NC(=O)[C@H](CCCNC(=N)N)NC(=O)[C@@H](CCCNC(=N)N)NC(=O)[C@@H]1CCCN1C(=O)[C@@H](CCCNC(=N)N)NC(=O)[C@H](CCCNC(=N)N)NC(=O)[C@@H](CCCNC(=N)N)NC(=O)Nc1ccc(F)cc1)C(N)=O [SEQ ID NO: 57, 4-FPhNHC(O)NH-rRr-P-rRr-P-rRrR-P-rRrR-NH2] ({NH(4-F-phenyl)-CO}-[dR]R[dR]P[dR]R[dR]P[dR]R[dR]RP[dR]R[dR]R-NH2) | 0.5 µg/mL (≈ 0.19 µM) | 0.5 µg/mL (≈ 0.19 µM) | 0.5 µg/mL (≈ 0.19 µM) | 0.5 µg/mL (≈ 0.19 µM) | 0.5 µg/mL (≈ 0.19 µM) | 1 µg/mL (≈ 0.38 µM) | 0.5 µg/mL (≈ 0.19 µM) |
| N=C(N)NCCC[C@H](NC(=O)[C@@H](CCCNC(=N)N)NC(=O)[C@H](CCCNC(=N)N)NC(=O)[C@@H](CCCNC(=N)N)NC(=O)[C@@H]1CCCN1C(=O)[C@H](CCCNC(=N)N)NC(=O)[C@@H](CCCNC(=N)N)NC(=O)[C@H](CCCNC(=N)N)NC(=O)[C@@H](CCCNC(=N)N)NC(=O)[C@@H]1CCCN1C(=O)[C@@H](CCCNC(=N)N)NC(=O)[C@H](CCCNC(=N)N)NC(=O)[C@@H](CCCNC(=N)N)NC(=O)[C@@H]1CCCN1C(=O)[C@@H](CCCNC(=N)N)NC(=O)[C@H](CCCNC(=N)N)NC(=O)[C@@H](CCCNC(=N)N)NC(=O)C1CCCCC1)C(N)=O [SEQ ID NO: 58, cHexC(O)NH-rRr-P-rRr-P-rRrR-P-rRrR-NH2] (Cyclohexanecarbonyl-[dR]R[dR]P[dR]R[dR]P[dR]R[dR]RP[dR]R[dR]R-NH2; N-terminus and C-terminus assumed) | 1 µg/mL (≈ 0.384 µM) | 1 µg/mL (≈ 0.384 µM) | 0.5 µg/mL (≈ 0.192 µM) | 0.5 µg/mL (≈ 0.192 µM) | 1 µg/mL (≈ 0.384 µM) | 2 µg/mL (≈ 0.768 µM) | 1 µg/mL (≈ 0.384 µM) |
| N=C(N)NCCC[C@H](NC(=O)[C@@H](CCCNC(=N)N)NC(=O)[C@H](CCCNC(=N)N)NC(=O)[C@@H](CCCNC(=N)N)NC(=O)[C@@H]1CCCN1C(=O)[C@H](CCCNC(=N)N)NC(=O)[C@@H](CCCNC(=N)N)NC(=O)[C@H](CCCNC(=N)N)NC(=O)[C@@H](CCCNC(=N)N)NC(=O)[C@@H]1CCCN1C(=O)[C@@H](CCCNC(=N)N)NC(=O)[C@H](CCCNC(=N)N)NC(=O)[C@@H](CCCNC(=N)N)NC(=O)[C@@H]1CCCN1C(=O)[C@@H](CCCNC(=N)N)NC(=O)[C@H](CCCNC(=N)N)NC(=O)[C@@H](CCCNC(=N)N)NC(=O)CN1CCOCC1)C(N)=O [SEQ ID NO: 59, MorpholineCH2C(O)NH-rRr-P-rRr-P-rRrR-P-rRrR-NH2] (Morpholinoacetyl-[dR]R[dR]P[dR]R[dR]P[dR]R[dR]RP[dR]R[dR]R-NH2) | 0.5 µg/mL (≈ 0.191 µM) | 0.5 µg/mL (≈ 0.191 µM) | 0.5 µg/mL (≈ 0.191 µM) | 0.5 µg/mL (≈ 0.191 µM) | 0.5 µg/mL (≈ 0.191 µM) | 2 µg/mL (≈ 0.763 µM) | 4 µg/mL (≈ 1.53 µM) |
| N=C(N)NCCC[C@@H](N)C(=O)N[C@@H](CCCNC(=N)N)C(=O)N[C@H](CCCNC(=N)N)C(=O)N[C@@H](CCCNC(=N)N)C(=O)N1CCC[C@H]1C(=O)N[C@H](CCCNC(=N)N)C(=O)N[C@@H](CCCNC(=N)N)C(=O)N[C@H](CCCNC(=N)N)C(=O)N[C@@H](CCCNC(=N)N)C(=O)N1CCC[C@H]1C(=O)N[C@H](CCCNC(=N)N)C(=O)N[C@@H](CCCNC(=N)N)C(=O)N[C@H](CCCNC(=N)N)C(=O)N[C@@H](CCCNC(=N)N)C(N)=O [SEQ ID NO: 67, rRrR-P-rRrR-P-rRrR-NH2] (H-[dR]R[dR]RP[dR]R[dR]RP[dR]R[dR]R-NH2) | 0.5 µg/mL (≈ 0.24 µM) | 0.25 µg/mL (≈ 0.12 µM) | 0.25 µg/mL (≈ 0.12 µM) | 0.25 µg/mL (≈ 0.12 µM) | 0.5 µg/mL (≈ 0.24 µM) | 0.5 µg/mL (≈ 0.24 µM) | 4 µg/mL (≈ 1.92 µM) |
| N=C(N)NCCC[C@@H](N)C(=O)N[C@@H](CCCNC(=N)N)C(=O)N[C@H](CCCNC(=N)N)C(=O)N1CCC(C(=O)N[C@H](CCCNC(=N)N)C(=O)N[C@@H](CCCNC(=N)N)C(=O)N[C@H](CCCNC(=N)N)C(=O)N2CCC(C(=O)N[C@H](CCCNC(=N)N)C(=O)N[C@@H](CCCNC(=N)N)C(=O)N[C@H](CCCNC(=N)N)C(=O)N[C@@H](CCCNC(=N)N)C(=O)N3CCC(C(=O)N[C@H](CCCNC(=N)N)C(=O)N[C@@H](CCCNC(=N)N)C(=O)N[C@H](CCCNC(=N)N)C(=O)N[C@@H](CCCNC(=N)N)C(N)=O)CC3)CC2)CC1 [SEQ ID NO: 74, rRr-(Inp)-rRr-(Inp)-rRrR-(Inp)-rRrR-NH2] (H-[dR]R[dR][Inp][dR]R[dR][Inp][dR]R[dR]R[Inp][dR]R[dR]R-NH2) | 0.5 µg/mL (≈ 0.197 µM) | 0.5 µg/mL (≈ 0.197 µM) | 0.5 µg/mL (≈ 0.197 µM) | 0.25 µg/mL (≈ 0.0985 µM) | 0.5 µg/mL (≈ 0.197 µM) | 1 µg/mL (≈ 0.394 µM) | 0.5 µg/mL (≈ 0.197 µM) |
| N=C(N)NCCC[C@@H](N)C(=O)N[C@@H](CCCNC(=N)N)C(=O)N[C@H](CCCNC(=N)N)C(=O)N[C@@H](Cc1ccncc1)C(=O)N[C@H](CCCNC(=N)N)C(=O)N[C@@H](CCCNC(=N)N)C(=O)N[C@H](CCCNC(=N)N)C(=O)N[C@@H](Cc1ccncc1)C(=O)N[C@H](CCCNC(=N)N)C(=O)N[C@@H](CCCNC(=N)N)C(=O)N[C@H](CCCNC(=N)N)C(=O)N[C@@H](CCCNC(=N)N)C(=O)N[C@@H](Cc1ccncc1)C(=O)N[C@H](CCCNC(=N)N)C(=O)N[C@@H](CCCNC(=N)N)C(=O)N[C@H](CCCNC(=N)N)C(=O)N[C@@H](CCCNC(=N)N)C(N)=O [SEQ ID NO: 77, rRr-(4-PyrAla)-rRr-(4-PyrAla)-rRrR-(4-PyrAla)-rRrR-NH2] (H-[dR]R[dR][4Pal][dR]R[dR][4Pal][dR]R[dR]R[4Pal][dR]R[dR]R-NH2) | 0.5 µg/mL (≈ 0.189 µM) | 0.5 µg/mL (≈ 0.189 µM) | 0.5 µg/mL (≈ 0.189 µM) | 0.25 µg/mL (≈ 0.0944 µM) | 0.5 µg/mL (≈ 0.189 µM) | 0.5 µg/mL (≈ 0.189 µM) | 0.5 µg/mL (≈ 0.189 µM) |
| N=C(N)NCCC[C@@H](N)C(=O)N[C@@H](CCCNC(=N)N)C(=O)N[C@@H](Cc1ccncc1)C(=O)N[C@H](CCCNC(=N)N)C(=O)N[C@@H](CCCNC(=N)N)C(=O)N[C@@H](Cc1ccncc1)C(=O)N[C@H](CCCNC(=N)N)C(=O)N[C@@H](CCCNC(=N)N)C(=O)N[C@H](CCCNC(=N)N)C(=O)N[C@@H](Cc1ccncc1)C(=O)N[C@H](CCCNC(=N)N)C(=O)N[C@@H](CCCNC(=N)N)C(=O)N[C@H](CCCNC(=N)N)C(N)=O [SEQ ID NO: 78, rR-(4-PyrAla)-rR-(4-PyrAla)-rRr-(4-PyrAla)-rRr-NH2] (H-[dR]R[4Pal][dR]R[4Pal][dR]R[dR][4Pal][dR]R[dR]-NH2) | 0.5 µg/mL (≈ 0.247 µM) | 0.5 µg/mL (≈ 0.247 µM) | 0.25 µg/mL (≈ 0.124 µM) | 0.25 µg/mL (≈ 0.124 µM) | 0.5 µg/mL (≈ 0.247 µM) | 1 µg/mL (≈ 0.494 µM) | 16 µg/mL (≈ 7.91 µM) |
